Read-outs that look alike come from different tables or passages of the source.
Key:
[1] = test system: hCAR-mediated CYP2B6 promoter; assay: CAR-mediated CYP2B6 promoter luciferase assay in HepG2 cells; format: cell-based, human; settings: pcDNA3-CAR-transfected HepG2 cells, 24 h; CITCO 500 nM
Experimental: (§1) HepG2 cells (American Tissue Culture Collection, Manassas, VA, USA) were maintained in Dulbecco’s modified Eagle’s essential medium (DMEM), containing 10% fetal bovine serum, 1% nonessential amino acids, 1% GlutaMAX®, and 1% antibiotics/antimycotics at 37 °C in a 5% CO2 atmosphere. The expression plasmid encoding the human constitutive androstane receptor (hCAR; pcDNA3-CAR) and the pGL3-CYP2B6 luciferase construct were kindly provided by Dr. Hongbing Wang (University of Maryland, College Park, MD, USA). The plasmid encoding the human pregnane X receptor (hPXR; pcDNA3-PXR) and the pGL3-CYP3A4 luciferase construct were obtained from Dr. Masahiko Negishi at the National Institutes of Health (Bethesda, MD, USA). Cells were seeded at a density of 1.5 × 10^5 cells/well into a 24-well plate. The next day, the cells were transfected with 0.25 μg of either pcDNA3-CAR or pcDNA3-PXR and 0.25 μg of a promoter luciferase plasmid (either pGL3-CYP2B6 or pGL3-CYP3A4) using Lipofectamine 2000 (Invitrogen, Carlsbad, CA, USA) according to the manufacturer’s instructions. […] The cells were harvested and luciferase activity was measured as described previously.

[2] = UDPGA-dependent metabolic stability in human liver microsomes; format: in vitro ADME; settings: for half-life at 100 µM / CLint scaled at 100 µM: human, pH 7.4, human liver microsomes; for CLint scaled at 100 µM: read-out: CLint, hepatic
Experimental: Metabolic stability was measured by monitoring the amount of parent compound that remained in an incubation mixture at designated incubation time points. For the phase I metabolism study, SKN (100 μM) was incubated with liver microsomes (1 mg/mL, rat, mouse, and dog; and 0.5 mg/mL, human), and an NADPH-generation cocktail consisting of nicotinamide adenine dinucleotide phosphate (NADP^+, 1 mM), glucose-6-phosphate (5 mM), glucose-6-phosphate dehydrogenase (1 unit/mL), and MgCl2 (10 mM) in potassium phosphate buffer (0.1 M, pH 7.4) in a total volume of 1 mL. To study phase II glucuronide conjugative metabolism, uridine 5′-diphosphoglucuronic acid (UDPGA) (2 mM) was added as a cofactor. The mixture was incubated in a shaking water bath, and the enzyme reaction was initiated by the addition of NADP^+, UDPGA, or both. Aliquots (100 μL) were removed at 0, 5, 15, 30, 45, and 60 min, and the reaction was terminated by adding two volumes of ice-cold methanol. […] The half-life of SKN was obtained by plotting the remaining amount of SKN against time using Prism 3.0 software (GraphPad, La Jolla, CA, USA). Hepatic intrinsic clearance (CLint, hepatic) was calculated using the following formula [20]:CLint, hepatic = (0.693/t1/2) × (g liver weight/kg body weight) × (mL incubation/mg of microsomal protein) × (mg microsomal protein concentration/g of liver)
(§2) The DAD was set at 280 nm.

[3] = test system: CYP isozymes (all isozyme-specific reactions); assay: CYP inhibition in human liver microsomes, all isozyme-specific reactions; format: in vitro ADME; settings: pH 7.4, SKN 10 μM, read-out: inhibitory effect on the formation of any CYP isozyme-specific metabolites
Text: as §2

[4] = test system: hPXR-mediated CYP3A4 promoter; assay: PXR-mediated CYP3A4 promoter luciferase assay in HepG2 cells; format: cell-based, human; settings: pcDNA3-PXR-transfected HepG cells, SKN 20 μM, 24 h
Experimental: as §1

[5] = test system: various cancer cell lines; settings: cited from earlier work

SMILES | CYP2B6 luciferase activity increase [1] | Amount Remaining at 30 min (%) ([2]; NADPH +) | Amount Remaining at 30 min (%) ([2]; NADPH −) | half-life at 100 µM ([2]; NADPH +) [min] | CLint scaled at 100 µM ([2]; NADPH +) [mL/min/kg] | half-life at 100 µM ([2]; NADPH −) [min] | CLint scaled at 100 µM ([2]; NADPH −) [mL/min/kg] | inhibition at 60 min, 10 µM [3] [%] | CYP3A4-luciferase activity increase [4] [fold] | anti-proliferative activity compared to naringenin [5]
COc1cc(O)c2c(c1)OC(c1ccc(O)cc1)CC2=O (racemic) [SKN, (+/−) 7-O-methylnaringenin] | not affected | 54.9 | 71.3 | 25 | 49.9 | > 30 | < 41.6 | ≤ 20 | 3.8 | 
O=C1C[C@@H](c2ccc(O)c(O)c2)Oc2cc(O)cc(O)c21 [Eriodictyol, 3′-hydroxynaringenin] |  |  |  |  |  |  |  |  |  | two-fold higher

— publication PMC6100415, “Hepatic Metabolism of Sakuranetin and Its Modulating Effects on Cytochrome P450s and UDP-Glucuronosyltransferases” (Molecules : A Journal of Synthetic Chemistry and Natural …, 2018)
